Results from patent US20100298141A1, “SUBSTITUTED PYRIDINE N-OXIDE HERBICIDES” (E. I. DU PONT DE NEMOURS AND COMPANY, priority 2007, published 2010).

How the values were obtained:
Goosegrass = experiment: Test C pre-/postemergence test; assay type: in vivo, Eleusin indica; details: for Plant response rating, Goosegrass: scale 0 to 100 (0 no effect, 100 complete control)
Source text: (§1) Seeds of plant species selected from blackgrass (Alopecurus myosuroides), downy brome (Bromus tectorum), green foxtail (Setaria viridis), Italian ryegrass (Lolium multiflorum), wheat (Triticum aestivum), wild oat (Avena fatua), catchweed bedstraw (Galium aparine), Russian thistle (Salsola kali), […] (Cynodon dactylon), Surinam grass (Brachiaria decumbens), cocklebur (Xanthium strumarium), corn (Zea mays), crabgrass (Digitaria sanguinalis), woolly cupgrass (Eriochloa villosa), giant foxtail (Setaria faberii), Goosegrass (Eleusin indica), johnsongrass (Sorghum halepense), kochia (Kochia scoparia), lambsquarters (Chenopodium album), morningglory (Ipomoea coccinea), eastern black nightshade (Solanum ptycanthum), yellow nutsedge (Cyperus esculentus), pigweed (Amaranthus retroflexus), common ragweed (Ambrosia elation), soybean (Glycine max), common (oilseed) sunflower (Helianthus annuus), and velvetleaf (Abutilon theophrasti) were planted and treated preemergence with test chemicals formulated in a non-phytotoxic solvent mixture which included a surfactant. At the same time, plants selected from these crop and weed species and also winter barley (Hordeum vulgare), canarygrass (Phalaris minor), and chickweed (Stellaria media) were treated with postemergence applications of some of the test chemicals formulated in the same manner. Plants ranged in height from 2 to 18 cm (1- to 4-leaf stage) for postemergence treatments. […] At time of treatment, test pots were flooded to 3 cm above the soil surface, treated by application of test compounds directly to the paddy water, and then maintained at that water depth for the duration of the test. […] A dash (-) response means no test result.

umbrella sedge = experiment: Test C flooded paddy test; assay type: in vivo, Cyperus difformis; details: Flood
In short: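 Visual injury ratings against untreated controls, taken 13 to 15 days after compound was added to paddy water standing 3 cm above the soil.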

crabgrass = experiment: Test C pre-/postemergence test; assay type: in vivo, Digitaria sanguinalis; details: for Plant response rating, Crabgrass, Large: scale 0 to 100 (0 no effect, 100 complete control)
Source text: as §1

wheat = experiment: Test A pre-/postemergence greenhouse test; assay type: in vivo, Triticum aestivum; details: for Wheat plant response rating: 0 to 100 scale; for Plant response rating, Wheat: 0 to 100 scale where 0 is no effect and 100 is complete control
In short: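 Pots of loam–sand soil sown with the test species are sprayed preemergence on the soil surface; emerged seedlings (1–2 leaves, 2–10 cm) are sprayed postemergence at the same time. The vehicle is a non-phytotoxic solvent mixture with surfactant. Injury is scored visually after ~10 d in greenhouse.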

[1] = 31 g ai/ha, Preemergence, scale 0 to 100
[2] = 62 g ai/ha, preemergence, scale 0 (no effect) to 100 (complete control)
[3] = preemergence, 125 g ai/ha, scale 0 (no effect) to 100 (complete control)
[4] = 31 g ai/ha, scale 0 to 100 (0 no effect, 100 complete control)
[5] = 62 g ai/ha, scale 0 to 100, 0 no effect, 100 complete control, 13 to 15 days
[6] = 125 g ai/ha, scale 0 to 100, 0 no effect, 100 complete control, 13 to 15 days
[7] = Postemergence, 125 g ai/ha, 0 is no effect, 100 is complete control
[8] = Postemergence, 500 g ai/ha, 0 is no effect, 100 is complete control
[9] = Preemergence, 125 g ai/ha, 0 no effect, 100 complete control
[10] = 250 g ai/ha, scale 0 to 100, 0 no effect, 100 complete control, 13 to 15 days
[11] = 62 g ai/ha, Preemergence, scale 0 to 100
[12] = 125 g ai/ha, preemergence, scale 0 (no effect) to 100 (complete control)
[13] = preemergence, 250 g ai/ha, scale 0 (no effect) to 100 (complete control)

| SMILES | Plant response rating (0 to 100), Goosegrass (Goosegrass; Preemergence, 250 g ai/ha) | Plant response rating, Sedge, Umbrella (umbrella sedge; [4]) | Plant response rating, Sedge, Umbrella (umbrella sedge; [5]) | Plant response rating, Sedge, Umbrella (umbrella sedge; [6]) | Plant response rating (0 to 100), Crabgrass, Large (crabgrass; Preemergence, 250 g ai/ha) | Wheat plant response rating (wheat; [7]) | Wheat plant response rating (wheat; [8]) | Wheat plant response rating (wheat; [9]) | Plant response rating, Wheat (wheat; Preemergence, 500 g ai/ha) | Plant response rating, Sedge, Umbrella (umbrella sedge; [10]) | Goosegrass plant response rating (Goosegrass; [11]) | Plant response rating, Goosegrass (Goosegrass; Preemergence, 31 g ai/ha) | Crabgrass, Large plant response rating (crabgrass; [11]) | Plant response rating, Crabgrass, Large (crabgrass; Preemergence, 31 g ai/ha) | also measured |
| --- | --- | --- | --- | --- | --- | --- | --- | --- | --- | --- | --- | --- | --- | --- | --- |
| Cc1cc[n+]([O-])c(S(=O)(=O)C(C)c2c(C(F)(F)F)nn(C)c2Cl)c1 (racemic) [Compound 14] | 100 | 75 | 85 | 100 | 100 | 40 | 50 | 40 | 60 |  |  |  |  |  | Goosegrass plant response rating (Goosegrass; [1]): 100; Goosegrass plant response rating (Goosegrass; [2]): 100; Goosegrass plant response rating (Goosegrass; [3]): 100; Plant response rating, Sedge, Umbrella (umbrella sedge; 250 g ai/ha, scale 0 to 100 (0 no effect, 100 complete control)): 100; Crabgrass, Large plant response rating (crabgrass; [1]): 100; Crabgrass, Large plant response rating (crabgrass; [2]): 100; Crabgrass, Large plant response rating (crabgrass; [3]): 100 |
| Cn1nc(C(F)(F)F)c(C[S+]([O-])c2ccc(Br)c[n+]2[O-])c1OC(F)F (racemic) [Compound 16] | 100 | 0 | 0 | 0 | 100 | 60 | 70 | 60 | 80 | 0 |  |  |  |  | Goosegrass plant response rating (Goosegrass; [1]): 98; Goosegrass plant response rating (Goosegrass; [2]): 100; Goosegrass plant response rating (Goosegrass; [3]): 100; Crabgrass, Large plant response rating (crabgrass; [1]): 80; Crabgrass, Large plant response rating (crabgrass; [2]): 98; Crabgrass, Large plant response rating (crabgrass; [3]): 100 |
| Cn1nc(C(F)(F)F)c(C[S+]([O-])c2ccc(Cl)c[n+]2[O-])c1Cl (racemic) [Compound 17] | 100 | 60 | 85 | 95 | 100 | 50 | 60 | 50 | 80 | 95 | 100 | 100 | 100 | 98 |  |
| Cn1nc(C(F)(F)F)c(C[S+]([O-])c2cc(C(C)(C)C)cc[n+]2[O-])c1OC(F)F (racemic) [Compound 24] | 100 | 60 | 85 | 95 | 100 | 0 | 30 | 50 | 90 | 95 | 100 | 85 | 100 | 100 |  |
| CC(c1c(C(F)(F)F)nn(C)c1OC(F)F)S(=O)(=O)c1cc(C(C)(C)C)cc[n+]1[O-] (racemic) [Compound 26] | 100 | 70 | 80 | 95 | 100 | 10 | 40 | 20 | 70 | 95 | 98 | 90 | 100 | 100 |  |
| Cn1nc(C(F)(F)F)c(C[S+]([O-])c2cc(C(F)(F)F)cc[n+]2[O-])c1Cl (racemic) [Compound 34] | 100 | 0 | 85 | 85 | 100 | 0 | 0 | 30 | 50 | 90 | 98 | 98 | 100 | 98 |  |
| Cn1nc(C(F)(F)F)c(C[S+]([O-])c2cc(Br)cc[n+]2[O-])c1Cl (racemic) [Compound 35] |  | 80 | 90 | 95 |  | 40 | 50 | 30 | 50 | 95 | 100 | 80 | 100 | 85 | Goosegrass plant response rating (Goosegrass; [12]): 100; Goosegrass plant response rating (Goosegrass; [13]): 100; Crabgrass, Large plant response rating (crabgrass; [12]): 100; Crabgrass, Large plant response rating (crabgrass; [13]): 100 |
| Cn1nc(C(F)(F)F)c(C(Cl)S(=O)(=O)c2cccc[n+]2[O-])c1OCC(F)(F)F (racemic) [Compound 36] |  | 80 | 85 | 95 |  | 0 | 50 | 20 | 60 | 100 | 100 | 85 | 80 | 65 | Goosegrass plant response rating (Goosegrass; [12]): 100; Goosegrass plant response rating (Goosegrass; [13]): 100; Crabgrass, Large plant response rating (crabgrass; [12]): 100; Crabgrass, Large plant response rating (crabgrass; [13]): 100 |
